Consider one substance from US7834006B2, “Fused polycyclic compounds” (Ajinomoto Co., Inc., priority 2004, dated 2010).

The assay deals with adipose cells of rats. In words: Evaluation of the sugar transporting capacity (2-[14C(U)]-deoxy-D-glucose incorporation). The format is cell-based. Conditions: insulin 100 nM; rat adipose cells; 2-deoxy-D-glucose incorporation.

Experimental: Preparation of Adipose Cells of Rats:
After the decapitation and venesection of 6 male Wistar rats (body weight: 150 to 200 g), an incision was made in the abdomen of each rat to extract 6 g in total of epididymal adipose tissues. The tissues were finely cut into 2 mm×2 mm pieces in 6 ml of KRH (Krebs-Ringer Hepes, composition: 130 mM of sodium chloride, 4.7 mM of potassium chloride, 1.2 mM of potassium dihydrogenphosphate, 1.2 mM of magnesium sulfate, 1 mM of calcium chloride and 25 mM of Hepes, pH=7.6) containing 5% of BSA (bovine serum albumin). 24 mg of collagenase (type I) was added thereto and the digestion treatment was conducted for about 40 minutes to obtain about 6 ml of isolated adipose cells. The collagenase was removed by the buffer exchange. 2% BSA/KRH solution was added to the residue for the re-suspension to obtain 45 ml of an adipose cell suspension.
Evaluation of the Sugar Transporting Capacity: […]
The sugar transporting capacity was evaluated by measuring the quantity of 2-[^14C(U)]-deoxy-D-glucose incorporated per a unit time. […] The quantity of 2-[^14C(U)]-deoxy-D-glucose contained in the adipose cell layer was determined with a liquid scintillation counter to determine the quantity of the incorporated sugar.

As to insulin, the “effect of increasing the sugar-transporting capacity versus insulin-free control group” value is “about 7 times”.
